Laboratory results as given in US20230341376A1, “SYSTEM, METHOD, AND COMPUTER-ACCESSIBLE MEDIUM FOR PHENOTYPING OF SINGLE CELLS WITH MULTIPLEXED VIBRATIONAL PROBES” (The Trustees of Columbia University in the City of New York, priority 2020, published 2023).

Key:
Assay type in all cases: cell-based, human
A375 cells = settings: for metabolic heterogeneity of lipid synthesis activity (Cv of single-cell d-PA metabolites): compared to untreated control group; for d-AA metabolites (protein synthesis activity): compared to untreated group
Experimental: Deuterated branch-chained amino acids and deuterated palmitic acid were supplemented to the cell culture media for 24 hours in order to probe the flux of protein and lipid synthesis. There can be several considerations for choosing these two types of probes. First, protein and lipids can be the major components of cell dry mass and their metabolism can be tightly regulated. Second, Raman spectra of the metabolites of these two deuterated probes in cells can be shifted to the cell silent region (e.g., 2000 — 2300 cm-1), which facilitated the detection with high sensitivity in a background-free manner. (See, e.g., FIG. 8). Third, compared to non-branch-chained counterparts, branch-chained amino acids were chosen for their narrower Raman spectra in order to have better spectral differences from that of deuterated palmitic acid. (See, e.g., Reference 23; and FIGS. 9). With the high-throughput instrumentation efforts described above, Raman spectra of these two types of probes can be acquired as quickly as 0.5 s for the entire cell with a satisfactory signal to noise ratio. (See, e.g., FIG. 1B).
Previously, the single-cell metabolic measurement has been challenging. Previously-used methods, such as mass spectrometry, can be difficult to reveal single-cell level heterogeneity. (See, e.g., Reference 24). […] However, due to the complex nature of the Raman spectra, it can be difficult to assign each Raman peak in the fingerprint region to a specific chemical compound. (See, e.g., Reference 25). In addition, when dimension reduction approaches such as PCA can be applied, which can be a common practice for data analysis, the physical meanings of the dimension reduced data can be further lost. On the other hand, since the metabolic probes used have distinctive spectra, it can be straightforward to decompose the spectra in order to obtain the concentration information of each individual probe. Here the exemplary MCR-ALS method, (see, e.g., References 26-28), was used to decompose the composite spectra into the pure spectra of the two metabolic probes, and concentration profiles could thereby be obtained.
To validate the ability to reveal metabolic activity, the exemplary MAP was applied to cultured cells treated with drugs that inhibit known metabolism. Five drugs were used as the reference: cycloheximide and blasticidin, both inhibit protein translation; Triacsin C can be an inhibitor of long fatty acyl CoA synthetase; etoposide and cisplatin can be DNA replication inhibitors. MAP probes and individual drugs were added to the seeded A375 cells and allowed to incubate for 24 hours, after which the cells were fixed and Raman spectra were taken from each individual of the fixed single cells. At least 3 batches of each drug were prepared to ensure model robustness and reproducibility. MCR-ALS on the Raman spectra taken with MAP were applied, from which the concentration profiles of d-AA metabolites and d-PA metabolites in every single cell were calculated. (See, e.g., FIG. 2A).
Since MAP measures the metabolic activity in single cells, its potential in quantitatively characterizing single-cell metabolic heterogeneity was determined. The coefficients of variation (“Cv”) of the single-cell d-PA metabolites and d-AA metabolites distribution were calculated from the metabolic inhibitor-treated cells. (See, e.g., Reference 32). The Cv value can be a normalized measure of the dispersion of the single-cell metabolic activity distribution and thus it can be used as a parameter to quantify the metabolic heterogeneity. […] (See, e.g., FIG. 2C). […] (See, e.g., FIG. 2D).
For MAP samples, cells were first seeded in a 24-well plate at 50% confluency with cell culture media and allowed to adhere overnight. Then the culture media was replaced with MAP culture media (see Table 1 below) and cells were further cultured in MAP media for 24 hours. […]

HeLa cells = assay: Endocytic pathway profiling by Rdots of various sizes and colors, whole-cell Raman
Experimental: Upon exposure to mammalian cells, PS beads have been reported to enter cells through endocytosis, subsequently reaching the endosomal components. (See, e.g., Reference A40). Although some of the endocytic pathways have been well established, their exact biological roles are still under investigation. (See, e.g., References A41, A42). […] (See, e.g., Reference A43). Motivated by the independent size and color tunability of Rdots, cellular endocytosis pathways were profiled by incubating cells with Rdots of different sizes and colors. Rdots of 40 nm (Rdot2207), 70 nm (Rdot2118), and 120 nm (Rdot2092) in diameter were incubated with HeLa cells, and their Raman peaks are designed to be mutually resolvable.
For whole-cell Raman acquisition, the corresponding Raman intensity is proportional to the number of internalized Rdots, since the Raman intensity of Rdots remains stable after exposed to cellular microenvironments. We therefore quantified the peak intensity to profile the differential mechanism of Rdots internalization. To this end, cells were first pre-treated with one of three inhibitors, chlorpromazine (CPZ), nystatin, and cytochalasin D (Cyto D). CPZ is a cationic amphiphilic drug used to block clathrin-mediated endocytosis. (See, e.g., Reference A44). Nystatin can decompose cholesterol and inhibit caveolae-mediated endocytosis. (See, e.g., Reference A45). Cyto D inhibits the polymerization of actin filaments, which is required for receptor-mediated endocytosis in mammalian cells. (See, e.g., Reference A46). Additionally, cells were incubated at 4° C. to inhibit energy-dependent endocytosis. Then endocytosis was examined by the quantification of internalized Rdots at the single-cell level. A distinctive response of Rdots internalization was detected when treated with various inhibitors (FIGS. 16E-G), and the radar plot was presented to highlight the fold change after inhibition (FIG. 16H). […] (See, e.g., Reference A47). […] (See, e.g., References A48, A49).
FIGS. 16A-16M show exemplary illustration of an exemplary endocytic profiling assay by multi-color Rdots. […] The peak position of each Rdots was indicated by the arrow. Excitation: 532 nm (400 mW), acquisition time: 1 s. FIGS. 16B-16D show exemplary SRS images of cellular distribution for three endocytic Rdots, (B) 40 nm (C) 70 nm (D) 120 nm, scale bar: 10 µm. […] Excitation: 532 nm (400 mW), acquisition time: 1 s. FIGS. 16J-L show exemplary histogram showing the Raman intensity distribution of three endocytic Rdots uptake by HeLa, SKBR3, and COS-7 cells, FIG. 16J - 40 nm, FIG. 16K - 70 nm, and FIG. 16L - 120 nm.

SKBR3 cells = system: SKBR3 cells
Experimental: Metabolic probes including ^13C-EdU, 17-ODYA, and ^13C-AA were first supplemented to cell culture media for 60 hours to report various metabolic activities. For endocytic profiling, cells were subsequently incubated with three Rdots for 6 hours. Then, seven functionalized Rdots cocktail was pooled to stain cell surface proteins simultaneously. Prior to the spectral acquisition, AltQ2 probe was added to live cells. Single-cell Raman spectra of SKBR3 cells were acquired with 1 second acquisition time (see FIG. 17C). To decipher the contribution of individual Raman probes, the amide region (1500 cm^-1-1700 cm-^1) and cell-silent region (2000 cm^-1 - 2300 cm-^1) were linearly decomposed by using the reference spectral profiles of each probe (see FIG. 17D) (See, e.g., References A54-A56). The unmixing procedure was applied on single-cell Raman spectra (see FIG. 17E). […] (See, e.g., References A25, A26).
Cell-based profiling techniques are increasingly being used in drug discovery to monitor cell response upon drug treatment. (See, e.g., Reference A57). Optical techniques have unique advantages by allowing non-invasive, fast, and cost-effective readouts of individual living cells. (See, e.g., Reference A58). However, most high-content profiling assays have been primarily focusing on partial aspects of biological phenotypes. (See, e.g., Reference A59). Integration of different phenotypes will facilitate a more systematic understanding of the mechanism of drug candidates. (See, e.g., Reference A60). […] Trastuzumab is a HER2-targeted monoclonal antibody developed for clinical use in breast cancer patients. (See, e.g., Reference A61). Hydrogen peroxide (H2O2) is well known as a major member of reactive oxygen species (ROS). (See, e.g., Reference A62). Cycloheximide (CHX) exerts its action by inhibiting protein synthesis. (See, e.g., Reference A63). Cyto D causes the disruption of actin filaments and inhibition of actin polymerization. (See, e.g., Reference A64). Cisplatin is an inhibitor of DNA synthesis and cell growth. (See, e.g., Reference A65). After labeling with 14 Raman probes, single-cell Raman spectra of SKBR3 cells under treatment of five chemotherapy reagents, as well as untreated cells, were acquired through the automated whole-cell Raman micro-spectroscopy (see FIG. 18B).
SKBR3 cells were seeded onto 18 mm round quartz coverslips (Electron Microscopy Sciences, 103302-258) and then maintained in a culture environment for 48 hours to reach 90% confluence. Then the culture medium was replaced with ^13C-AA DMEM containing 200 µM 17-ODYA and 50 nM ^13C-EdU for 60 hours. For the drug testing samples, cells were subject to the drug treatment simultaneously (see Table 5 for specific drug concentration). Followed by three rounds of gentle washing of DPBS buffer, cells were subsequently incubated with three-colored endocytic Rdots at 1 nM in serum-free DMEM medium. 6 hours later, cell surface markers were stained with seven-colored Rdots at a concentration of 10 nM for 1 hour on ice. After that, cells were washed extensively with DPBS buffer with 5 mM MgCl2 and 1% BSA. Then cells were rinsed with DPBS buffer with 5 mM MgCl2 and 40 µM AltQ2 before mounting onto the microscope for Raman measurement. Spectral unmixing was performed through the Least Square Method (LSM).

[1] = drug 60 hours, normalized to control

SMILES: COc1cc([C@@H]2c3cc4c(cc3[C@@H](O[C@@H]3O[C@@H]5CO[C@@H](C)O[C@H]5[C@H](O)[C@H]3O)[C@H]3COC(=O)[C@H]23)OCO4)cc(OC)c1O [etoposide]
- metabolic heterogeneity of lipid synthesis activity (Cv of single-cell d-PA metabolites) (A375 cells; 24 hours drug): significantly decreased lipid synthesis heterogeneity

SMILES: C[C@@H]1[C@H](O)[C@@H](C)/C=C/C=C/CC/C=C/C=C/C=C/C=C/C(O[C@H]2O[C@H](C)[C@@H](O)[C@H](N)[C@@H]2O)CC2O[C@](O)(CC(O)C(O)CCC(O)CC(O)CC(O)CC(=O)O[C@H]1C)CC(O)C2C(=O)O (stereo partly drawn) [nystatin]
- internalization of 120 nm Rdots after inhibitor pre-treatment (HeLa cells; Rdot2092 (120 nm)): inhibited
- internalization of 70 nm Rdots after inhibitor pre-treatment (HeLa cells; Rdot2118 (70 nm)): inhibited
- internalization of 40 nm Rdots after inhibitor pre-treatment (HeLa cells; Rdot2207 (40 nm)): unaltered or even slightly higher
- Rdots uptake (40 nm, 70 nm and 120 nm Rdots) after inhibitor pre-treatment (HeLa cells; single-cell Raman intensity of internalized Rdots): decreased as size increases

SMILES: C[C@@H]1C[C@@H]([C@H](O)CC2CC(=O)NC(=O)C2)C(=O)[C@@H](C)C1 [cycloheximide]
- internalization of AltQ2 (SKBR3 cells; drug 60 hours): increased internalization
- DNA synthesis (13C-EdU probe) (SKBR3 cells; [1]): interfere with the process other than protein synthesis such as DNA synthesis
- metabolic heterogeneity of lipid synthesis activity (Cv of single-cell d-PA metabolites) (A375 cells; 24 hours drug): did not alter the lipid synthesis activity distribution
- d-AA metabolites (protein synthesis activity) (A375 cells; drug plus MAP probes 24 hours): significant decrease

SMILES: N.N.[Cl][Pt][Cl] [cisplatin]
- metabolic heterogeneity of lipid synthesis activity (Cv of single-cell d-PA metabolites) (A375 cells; 24 hours drug): significantly decreased lipid synthesis heterogeneity

SMILES: CCC/C=C/C/C=C/C=C/C=N/NN=O [triacsin C, Triacsin C]
- metabolic heterogeneity of protein synthesis activity (Cv of single-cell d-AA metabolites) (A375 cells; 24 hours drug, compared to control group): unaltered Cv value
- metabolic heterogeneity of lipid synthesis activity (Cv of single-cell d-PA metabolites) (A375 cells; 24 hours drug): did not change the metabolic heterogeneity
- d-PA metabolites (lipid synthesis activity) (A375 cells; drug plus MAP probes 24 hours, compared to untreated cells): significant loss
- d-AA metabolites (protein synthesis activity) (A375 cells; drug plus MAP probes 24 hours): decrease in protein synthesis activity

SMILES: C=C1[C@@H](C)[C@H]2[C@H](Cc3ccccc3)NC(=O)[C@]23[C@H](OC(C)=O)/C=C/[C@@](C)(O)C(=O)[C@@H](C)C/C=C/[C@H]3[C@@H]1O [Cyto D, cytochalasin D]
- cellular uptake of Rdots, incubation with inhibitor for 60 hours (HeLa cells; 60 hours): markedly promoted
- Rdots internalization, short-term inhibitor incubation (HeLa cells; short-term incubation (6 hours per FIG. 16 legend)): suppressed
- CD44 surface expression (Rdot2079-CD44) (SKBR3 cells; drug 60 hours): suppresses CD44 surface expression
- internalization of AltQ2 (SKBR3 cells; drug 60 hours): increased internalization
- DNA synthesis (13C-EdU probe) (SKBR3 cells; [1]): inhibits
- protein synthesis (13C-AA probe) (SKBR3 cells; [1]): inhibits
- cellular internalization of Rdots (SKBR3 cells; long-term drug treatment): promote cellular internalization of Rdots

SMILES: OO [H2O2, Hydrogen peroxide]
- cellular internalization of Rdots of 70 nm (SKBR3 cells; drug 60 hours): promoted
- cellular internalization of Rdots of 120 nm (SKBR3 cells; drug 60 hours): promoted
- fatty acid turnover phenotype (17-ODYA probe) (SKBR3 cells; drug 60 hours): retarding their turnover rate
- internalization of AltQ2 (SKBR3 cells; drug 60 hours): increased internalization

SMILES: CN(CC[C@H](N)CC(=O)N[C@H]1C=C[C@H](n2ccc(N)nc2=O)O[C@@H]1C(=O)O)C(=N)N [blasticidin]
- metabolic heterogeneity of lipid synthesis activity (Cv of single-cell d-PA metabolites) (A375 cells; 24 hours drug): did not alter the lipid synthesis activity distribution
- d-AA metabolites (protein synthesis activity) (A375 cells; drug plus MAP probes 24 hours): significant decrease
